The test system of this experiment is cholesterol oxidase. The experiment can be described thus: Relative absorbance of free cholesterol reaction in serum with cholesterol oxidase and fulfenamic acid (Reagents J to L). The class given is biochemical. The following applies: 600 nm, 37° C. 5 minutes, pH 6.0/7.0/8.0, 5.0 U/mL cholesterol oxidase and 0 mM fulfenamic acid = 100, average of four serum samples. On the procedure: Reagents J to L shown below in Table 6 were prepared, which commonly contained 1.25 U/mL peroxidase (product of Toyobo Co., Ltd.), 0.01% 4-aminoantipyrine, 0.02% disulfo butyl-m-toluidine and 50 mM NaCl and were different from each other in the kind and pH of buffer and the concentrations of cholesterol oxidase (product of Toyobo Co., Ltd.) and fulfenamic acid (product of Sigma Chemical Co.).
Reagents J to L (300 μL) were separately added to aliquots (3 μL) of each serum sample. After the resultant mixtures were incubated at 37° C. for 5 minutes, their absorbances were measured at600 nm. The above procedures were conducted using the Hitachi 7150 automated analyzer.
With respect to each of Reagents J to L, relative absorbances were calculated for the individual concentrations of cholesterol oxidase and fulfenamic acid by assuming that the absorbance obtained with a reagent containing 5.0 U/mL cholesterol oxidase and 0 mM fulfenamic acid was 100.
Results, which had been obtained by averaging the relative absorbances of the four samples, are presented in FIG. 3. in which “COD” stands for cholesterol oxidase.

On to `O=C(O)c1ccccc1Nc1cccc(C(F)(F)F)c1` [fulfenamic acid, flufenamic acid], for which the relative absorbance entry is “increased depending upon the concentration of fulfenamic acid irrespective of the pH”.

For the origin of these results see patent publication US6818414B1, “Method of pretreatment of sample for quantitating cholesterol and method for quantitating cholesterol in specific lipoproteins by using the same” (Daiichi Pure Chemicals Co., Ltd., priority 1999, dated 2004).
